From patent US9957271B2, “Substituted bicyclic aza-heterocycles and analogues as sirtuin modulators” (GlaxoSmithKline, LLC, priority 2012, dated 2018)
Like-named read-outs stand apart in the source and are kept apart here.

Target: T1, SIRT1 (Homo sapiens, UniProt Q96EB6)
T1 sequence (Q96EB6 1-747): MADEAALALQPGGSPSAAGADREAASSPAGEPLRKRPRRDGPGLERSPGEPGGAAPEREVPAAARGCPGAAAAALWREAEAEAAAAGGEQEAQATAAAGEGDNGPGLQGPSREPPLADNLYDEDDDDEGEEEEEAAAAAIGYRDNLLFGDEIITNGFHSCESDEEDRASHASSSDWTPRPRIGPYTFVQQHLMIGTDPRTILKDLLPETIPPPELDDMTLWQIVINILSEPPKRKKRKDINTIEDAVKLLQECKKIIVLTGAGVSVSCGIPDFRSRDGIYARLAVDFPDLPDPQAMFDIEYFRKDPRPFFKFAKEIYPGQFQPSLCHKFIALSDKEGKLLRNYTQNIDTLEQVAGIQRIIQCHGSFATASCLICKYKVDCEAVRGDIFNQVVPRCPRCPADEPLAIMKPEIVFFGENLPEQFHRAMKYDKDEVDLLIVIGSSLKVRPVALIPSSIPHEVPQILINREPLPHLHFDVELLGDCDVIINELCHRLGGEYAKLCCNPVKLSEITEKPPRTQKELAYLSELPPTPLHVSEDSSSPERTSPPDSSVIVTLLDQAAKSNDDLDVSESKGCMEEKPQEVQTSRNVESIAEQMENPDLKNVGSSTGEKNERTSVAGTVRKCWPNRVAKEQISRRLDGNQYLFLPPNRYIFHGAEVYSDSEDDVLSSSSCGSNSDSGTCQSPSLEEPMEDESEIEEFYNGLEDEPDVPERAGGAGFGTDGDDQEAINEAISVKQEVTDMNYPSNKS
Test: TAMRA based mass spectrometry assay of SIRT1 activity
Format: biochemical
Conditions: for TAMRA EC1.5 (μM) / TAMRA EC1.5: concentration giving 150% activation of SIRT1; for Emax: percent maximum fold activation, read-out: TAMRA % Fold Act
How it was run: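 Deacetylation of a biotinylated, TAMRA-tagged p53-based peptide (0.5 μM) by 10 nM His-tagged SIRT1 with 120 μM βNAD+, 25 °C for 25 min, pH 8 Tris-acetate buffer, across a compound concentration range. Quenched by formic acid and read by mass spec as product peptide or OAADPR; activity relative to DMSO reactions, nicotinamide defining maximal inhibition.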

SMILES | TAMRA EC1.5 (μM) (TAMRA assay) | Emax (TAMRA assay) [%] | TAMRA EC1.5 (TAMRA peptide substrate) | Emax (TAMRA peptide substrate) [%]
N#Cc1ccccc1-c1ccc2ncc(NC(=O)c3cccc(N4CCOCC4)n3)n2n1 [Compound 337] | A (EC1.5<1 μM) | ≥ 350 |  | 
Cc1cc(NC(=O)c2c(O)nc3ccc(-c4ccccc4C(F)(F)F)nn23)cc(C)n1 [Compound 341] | C (EC1.5>25 μM) | < 350 |  | 
O=C(Nc1ncccn1)c1c(O)nc2ccc(-c3ccccc3C(F)(F)F)nn12 [Compound 342] | C (EC1.5>25 μM) |  |  | 
Cc1cccc(NC(=O)c2c(O)nc3ccc(-c4ccccc4C(F)(F)F)nn23)n1 [Compound 343] | C (EC1.5>25 μM) | < 350 |  | 
O=C(Nc1cccc(OCC(O)CO)n1)c1c(O)nc2ccc(-c3ccccc3C(F)(F)F)nn12 (stereo not drawn) [Compound 344] | B (EC1.5 1-25 μM) | < 350 |  | 
O=C(Nc1cncc(OCC(O)CO)n1)c1c(O)nc2ccc(-c3ccccc3C(F)(F)F)nn12 (stereo not drawn) [Compound 345] | B (EC1.5 1-25 μM) | ≥ 350 |  | 
Cc1nc2ccc(-c3ccccc3Cl)nn2c1NC(=O)c1cnccn1 [Compound 347] | C (EC1.5>25 μM) | < 350 |  | 
Cc1nc2ccc(-c3ccccc3Cl)nn2c1NC(=O)c1ncccn1 [Compound 349] | C (EC1.5>25 μM) | < 350 |  | 
Cc1nc2ccc(-c3ccccc3Cl)nn2c1NC(=O)c1cscn1 [Compound 350] | C (EC1.5>25 μM) | < 350 |  | 
Cc1nc2ccc(-c3ccccc3Cl)nn2c1NC(=O)c1nccs1 [Compound 353] | B (EC1.5 1-25 μM) | < 350 |  | 
Cc1nc2ccc(-c3ccccc3Cl)nn2c1NC(=O)c1cccc(N2CCOCC2)n1 [Compound 355] | A (EC1.5<1 μM) | ≥ 350 |  | 
Cc1nc2ccc(-c3ccccc3Cl)nn2c1NC(=O)c1cccc(N2CCC2)n1 [Compound 356] | A (EC1.5<1 μM) | < 350 |  | 
O=C(Nc1ccncc1F)c1cnc2ccc(-c3ccccc3OC(F)(F)F)nn12 [Compound 359] | B (EC1.5 1-25 μM) | ≥ 350 |  | 
Cc1cc(NC(=O)c2cnc3c(C)c(C)c(-c4ccccc4C(F)(F)F)nn23)cc(C)n1 [Compound 361] | A (EC1.5<1 μM) | ≥ 350 |  | 
O=C(Nc1cnccn1)c1cnc2ccc(-c3ccccc3OC(F)(F)F)nn12 [Compound 362] | A (EC1.5<1 μM) | ≥ 350 |  | 
Cc1cc(C)nc(NC(=O)c2c(O)nc3ccc(-c4ccccc4C(F)(F)F)nn23)c1 [Compound 365] | B (EC1.5 1-25 μM) | < 350 |  | 
Cc1cc(NC(=O)c2c(O)nc3ccc(-c4ccccc4C(F)(F)F)nn23)ccn1 [Compound 366] | B (EC1.5 1-25 μM) | < 350 |  | 
O=C(Nc1cccc(N2CCOCC2)n1)c1cnc2ccc(-c3ccccc3OCC(O)CO)nn12 (stereo not drawn) [Compound 367, 6-(2-(2,3-dihydroxypropoxy)phenyl)-N-(6-morpholinopyridin-2-yl)imidazo[1,2-b]pyridazine-3-carboxamide] | A (EC1.5<1 μM) | ≥ 350 |  | 
O=C(Nc1ccccn1)c1cnc2ccc(-c3ccccc3OCC(O)CO)nn12 (stereo not drawn) [Compound 368] | B (EC1.5 1-25 μM) | ≥ 350 |  | 
Cc1cc(NC(=O)c2cnc3ccc(-c4ccccc4OCC(O)CO)nn23)ccn1 (stereo not drawn) [Compound 370] | B (EC1.5 1-25 μM) | ≥ 350 |  | 
Cc1cc(C)nc(NC(=O)c2cnc3ccc(-c4ccccc4OCC(O)CO)nn23)c1 (stereo not drawn) [Compound 371] | A (EC1.5<1 μM) | ≥ 350 |  | 
O=C(Nc1ccccn1)c1cnc2ccc(-c3cccc(OCC(O)CO)c3)nn12 (stereo not drawn) [Compound 373] | B (EC1.5 1-25 μM) | < 350 |  | 
Cc1cc(NC(=O)c2cnc3ccc(-c4cccc(OCC(O)CO)c4)nn23)ccn1 (stereo not drawn) [Compound 374] | B (EC1.5 1-25 μM) | < 350 |  | 
Cc1nc2ccc(-c3ccccc3C(F)(F)F)nn2c1NC(=O)c1cnccn1 [Compound 376] | B (EC1.5 1-25 μM) | < 350 |  | 
Cc1nc2ccc(-c3ccccc3C(F)(F)F)nn2c1NC(=O)c1ncccn1 [Compound 378] | B (EC1.5 1-25 μM) | ≥ 350 |  | 

SMILES | TAMRA EC1.5 (μM) (TAMRA assay) | Emax (TAMRA assay) [%] | TAMRA EC1.5 (TAMRA peptide substrate) | Emax (TAMRA peptide substrate) [%]
Cc1nc(C(=O)Nc2c(C)nc3ccc(-c4ccccc4C(F)(F)F)nn23)c(C)s1 [Compound 379] | B (EC1.5 1-25 μM) | ≥ 350 |  | 
Cc1nc2ccc(-c3ccccc3C(F)(F)F)nn2c1NC(=O)c1cccc(N2CCOCC2)n1 [Compound 382] | A (EC1.5<1 μM) | ≥ 350 |  | 
Cc1nc2ccc(-c3ccccc3C(F)(F)F)nn2c1NC(=O)c1cccc(OCC(O)CO)n1 (stereo not drawn) [Compound 384] | B (EC1.5 1-25 μM) | < 350 |  | 
Cc1scnc1C(=O)Nc1cnc2c(C)c(C)c(-c3ccccc3Cl)nn12 [Compound 385] | A (EC1.5<1 μM) | ≥ 350 |  | 
Cc1cc(C)nc(C(=O)Nc2cnc3c(C)c(C)c(-c4ccccc4Cl)nn23)n1 [Compound 388] | A (EC1.5<1 μM) | ≥ 350 |  | 
O=C(Nc1cccc(CN2CC[C@@H](F)C2)n1)c1cnc2ccc(-c3ccccc3C(F)(F)F)nn12 [Compound 390] | A (EC1.5<1 μM) | ≥ 350 |  | 
O=C(Nc1cccc(CN2CCC(F)(F)CC2)n1)c1cnc2ccc(-c3ccccc3C(F)(F)F)nn12 [Compound 391] | A (EC1.5<1 μM) | ≥ 350 |  | 
Cc1ccc(C(=O)Nc2cnc3ccc(-c4ccccc4C(F)(F)F)nn23)c(C)n1 [Compound 394] | B (EC1.5 1-25 μM) | < 350 |  | 
Cc1ccc(NC(=O)c2cnc3ccc(-c4ccccc4OC(F)(F)F)nn23)nn1 [Compound 396] | A (EC1.5<1 μM) | ≥ 350 |  | 
Cc1cnc(NC(=O)c2cnc3ccc(-c4ccccc4OC(F)(F)F)nn23)s1 [Compound 397] |  |  | A (EC1.5<1 μM) | < 350
Cc1cc(C)nc(NC(=O)c2cnc3ccc(-c4ccccc4OC(F)(F)F)nn23)n1 [Compound 399] |  |  | B (EC1.5 1-25 μM) | ≥ 350
CC1(COc2cccc(NC(=O)c3cnc4ccc(-c5ccccc5OC(F)(F)F)nn34)n2)COC1 [Compound 400] |  |  | A (EC1.5<1 μM) | ≥ 350
Cc1c(-c2ccccc2Cl)nn2c(NC(=O)c3cccc(OCC(O)CO)n3)cnc2c1C (stereo not drawn) [Compound 402] |  |  | A (EC1.5<1 μM) | ≥ 350
Cc1scnc1C(=O)Nc1cnc2c(C)c(C)c(-c3ccccc3C(F)(F)F)nn12 [Compound 403] |  |  | A (EC1.5<1 μM) | ≥ 350
Cc1nc2ccc(-c3ccccc3C(F)(F)F)nn2c1NC(=O)c1cscn1 [Compound 404] |  |  | B (EC1.5 1-25 μM) | < 350
Cc1nc(C(=O)Nc2c(C)nc3ccc(-c4ccccc4C(F)(F)F)nn23)cs1 [Compound 405] |  |  | B (EC1.5 1-25 μM) | ≥ 350
Cc1cc(-c2ccccc2C(F)(F)F)nn2c(NC(=O)c3cnccn3)cnc12 [Compound 408] |  |  | A (EC1.5<1 μM) | ≥ 350
Cc1cc(-c2ccccc2C(F)(F)F)nn2c(NC(=O)c3ccncn3)cnc12 [Compound 409] |  |  | A (EC1.5<1 μM) | ≥ 350
Cc1cc(-c2ccccc2C(F)(F)F)nn2c(NC(=O)c3ncccn3)cnc12 [Compound 410] |  |  | A (EC1.5<1 μM) | ≥ 350
Cc1cc(-c2ccccc2C(F)(F)F)nn2c(NC(=O)c3cscn3)cnc12 [Compound 411] |  |  | A (EC1.5<1 μM) | ≥ 350
Cc1cc(-c2ccccc2C(F)(F)F)nn2c(NC(=O)c3nccs3)cnc12 [Compound 414] |  |  | A (EC1.5<1 μM) | ≥ 350
Cc1cccc(NC(=O)c2cnc3ccc(-c4cccc(OCC(O)CO)c4)nn23)n1 (stereo not drawn) [Compound 416] |  |  | A (EC1.5<1 μM) | ≥ 350
Cc1cc(C)nc(NC(=O)c2cnc3ccc(-c4cccc(OCC(O)CO)c4)nn23)c1 (stereo not drawn) [Compound 417] |  |  | A (EC1.5<1 μM) | ≥ 350
Cc1cc(C)nc(C(=O)Nc2cnc3c(C)c(C)c(-c4ccccc4C(F)(F)F)nn23)n1 [Compound 420] |  |  | A (EC1.5<1 μM) | ≥ 350
Cc1c(-c2ccccc2C(F)(F)F)nn2c(NC(=O)c3cccc(OCC(O)CO)n3)cnc2c1C (stereo not drawn) [Compound 422, 6-(2,3-dihydroxypropoxy)-N-(7,8-dimethyl-6-(2-(trifluoromethyl)phenyl)imidazo[1,2-b]pyridazin-3-yl)picolinamide] |  |  | A (EC1.5<1 μM) | ≥ 350
